Measured values reported in ChEMBL document CHEMBL4613212, “Insights of synthetic analogues of anti-leprosy agents” (Bioorg Med Chem, 2019).
Converted amounts (≈) assume the structure as drawn.

Key:
Mycobacterium leprae [1] = assay: Anti-leprotic activity against Mycobacterium leprae infected in CBA mouse assessed as number of Mycobacterium leprae in paw pads at 10 mg/kg administrated 5 times a week and measured 7.5 months post infection (reference value: 3.91 +/- 0.33 10^5); type: functional
Mycobacterium leprae [2] = assay: Anti-leprotic activity against Mycobacterium leprae infected in CBA mouse assessed as number of Mycobacterium leprae in paw pads at 30 mg/kg administrated 5 times a week and measured 7.5 months post infection (reference value: 3.91 +/- 0.33 10^5); type: functional
Mycobacterium leprae [3] = assay: Anti-leprotic activity against Mycobacterium leprae infected in 538 CBA mouse assessed as number of Mycobacterium leprae in paw pads at 4 mg/kg administrated via gastric tube 5 times a week and measured 7 months post infection; type: functional
Mycobacterium leprae [4] = assay: Anti-leprotic activity against Mycobacterium leprae primary cultures at 4 weeks assessed as ATP level per 10^7 cells at 0.005 mg/L measured by bioluminescence assay (reference value: 314 +/- 46 pg); type: functional
Plasmodium berghei = assay: Antimalarial activity against Plasmodium berghei infected in albino mouse assessed survival against infection at 400 mg/kg, sc administered as single dose; type: functional
[5] = test system: Mycolicibacterium smegmatis; assay: Antimycobacterial activity against DDS sensitive Mycobacterium smegmatis ATCC 607 […]; type: functional
[6] = test system: Mycolicibacterium smegmatis; assay: Antimycobacterial activity against DDS resistant Mycobacterium smegmatis ATCC 607 […]; type: functional
Mycobacterium leprae [7] = assay: Anti-leprotic activity against Mycobacterium leprae infected in albino mouse assessed survival against infection at 400 mg/kg, sc administered 58 days post-infection and subsequent compound dosing at 200 mg/kg at 0.5, 1 or 2 months interval; type: functional
[8] = Drug excretion in rat urine at 400 mg/kg, sc administered as single dose measured after 30 days; type: ADME, organism-based; conditions: read-out: Drug excretion
[9] = Drug concentration in rat blood at 400 mg/kg, sc administered as single dose; type: ADME, organism-based; conditions: in vivo
Rattus norvegicus = assay: Effect of metallo-protein haemoglobin in rat assessed as peak methemoglobin level at 400 mg/kg, sc administered as single dose; type: ADME, organism-based; conditions: in vivo
Mycobacterium leprae [10] = assay: Anti-leprotic activity against Mycobacterium leprae infected in BALB/c mouse assessed as time delay in bacterial multiplication in footpad at 0.0001 g/100g of diet administered via feed starting 60 or 75 day post infection up to 90 days by Shepard's kinetic method; type: functional
Mycobacterium leprae [11] = assay: (§1) Inhibition of PGL1 synthesis in Mycobacterium leprae infected Swiss Webster mouse macrophages assessed as decrease in [U-14C]PA incorporation at 2 uM preincubated for 4 days post infection followed by [U-14C]PA addition and measured after 7 days by liquid scintillation counter analysis relative to control; type: functional
Mycobacterium leprae [12] = assay: as §1, with “20” for “2”; type: functional
Mycobacterium leprae [13] = assay: Anti-leprotic activity against Mycobacterium leprae primary cultures at 4 weeks assessed as ATP level per 10^7 cells at 0.01 mg/L measured by bioluminescence assay (reference value: 314 +/- 46 pg); type: functional
Mycobacterium leprae [14] = assay: Anti-leprotic activity against Mycobacterium leprae primary cultures at 4 weeks assessed as ATP level per 10^7 cells at 0.025 mg/L measured by bioluminescence assay (reference value: 314 +/- 46 pg); type: functional
Mycobacterium leprae [15] = assay: Anti-leprotic activity against Mycobacterium leprae primary cultures at 4 weeks assessed as [3H]thymidine uptake per 5 times 10^7 cells at 0.005 mg/L (reference value: 0.95 +/- 0.01 pmol); type: functional
Mycobacterium leprae [16] = assay: Anti-leprotic activity against Mycobacterium leprae primary cultures at 4 weeks assessed as [3H]thymidine uptake per 5 times 10^7 cells at 0.01 mg/L (reference value: 0.95 +/- 0.01 pmol); type: functional
Mycobacterium leprae [17] = assay: Anti-leprotic activity against Mycobacterium leprae primary cultures at 4 weeks assessed as [3H]thymidine uptake per 5 times 10^7 cells at 0.025 mg/L (reference value: 0.95 +/- 0.01 pmol); type: functional
Mycobacterium leprae [18] = assay: Anti-leprotic activity against Mycobacterium leprae subcultures at 4 weeks assessed as ATP level per 10^7 cells at 0.005 mg/L measured by bioluminescence assay (reference value: 462 +/- 64 pg); type: functional
Mycobacterium leprae [19] = assay: Anti-leprotic activity against Mycobacterium leprae subcultures at 4 weeks assessed as ATP level per 10^7 cells at 0.01 mg/L measured by bioluminescence assay (reference value: 462 +/- 64 pg); type: functional
Mycobacterium leprae [20] = assay: Anti-leprotic activity against Mycobacterium leprae subcultures at 4 weeks assessed as ATP level per 10^7 cells at 0.025 mg/L measured by bioluminescence assay (reference value: 462 +/- 64 pg); type: functional
Mycobacterium leprae [21] = assay: Anti-leprotic activity against Mycobacterium leprae subcultures at 4 weeks assessed as [3H]thymidine uptake per 5 times 10^7 cells at 0.005 mg/L (reference value: 1.28 +/- 0.14 pmol); type: functional
Mycobacterium leprae [22] = assay: Anti-leprotic activity against Mycobacterium leprae subcultures at 4 weeks assessed as [3H]thymidine uptake per 5 times 10^7 cells at 0.01 mg/L (reference value: 1.28 +/- 0.14 pmol); type: functional
Mycobacterium leprae [23] = assay: Anti-leprotic activity against Mycobacterium leprae subcultures at 4 weeks assessed as [3H]thymidine uptake per 5 times 10^7 cells at 0.025 mg/L (reference value: 1.28 +/- 0.14 pmol); type: functional
Mycobacterium leprae [24] = assay: Antimicrobial activity against Mycobacterium leprae; type: functional
Mycobacterium leprae [25] = assay: Anti-leprotic activity against Mycobacterium leprae infected in 538 CBA mouse assessed as number of Mycobacterium leprae in paw pads at 2 mg/kg administrated via gastric tube 5 times a week and measured 7 months post infection; type: functional
[26] = test system: Mycobacterium tuberculosis; assay: Antimycobacterial activity against Mycobacterium tuberculosis H37Rv infected in CF-1 mouse assessed as change in survival time at 5 mg/kg administrated daily for 14 days with food relative to control; type: functional
[27] = test system: Mycobacterium tuberculosis; assay: Antimycobacterial activity against Mycobacterium tuberculosis H37Rv infected in CF-1 mouse assessed as change in survival time at 16 mg/kg administrated daily for 14 days with food relative to control; type: functional
[28] = test system: Mycobacterium tuberculosis; assay: Antimycobacterial activity against Mycobacterium tuberculosis H37Rv infected in CF-1 mouse assessed as change in survival time at 9 mg/kg administrated daily for 14 days with food relative to control; type: functional
[29] = test system: Mycobacterium tuberculosis; assay: Antimycobacterial activity against Mycobacterium tuberculosis H37Rv infected in CF-1 mouse assessed as change in survival time at 2 mg/kg administrated daily for 14 days with food relative to control; type: functional
[30] = test system: Mycobacterium tuberculosis; assay: Antimycobacterial activity against Mycobacterium tuberculosis H37Rv infected in CF-1 mouse assessed as change in survival time at 11 mg/kg administrated daily for 14 days with food relative to control; type: functional
[31] = test system: Mycobacterium tuberculosis; assay: Antimycobacterial activity against Mycobacterium tuberculosis H37Rv infected in CF-1 mouse assessed as change in survival time at 41 mg/kg administrated daily for 14 days with food relative to control; type: functional
[32] = test system: Mycobacterium tuberculosis; assay: Antimycobacterial activity against Mycobacterium tuberculosis H37Rv infected in CF-1 mouse assessed as change in survival time at 25 mg/kg administrated daily for 14 days with food relative to control; type: functional

Structure (SMILES): CCN(CC)C(=S)Sc1ncc([N+](=O)[O-])cc1C#N
- Activity (Mycobacterium leprae [1]): 0.56 ×10⁵ No_unit
- Activity (Mycobacterium leprae [2]): 0.06 ×10⁵ No_unit
- Activity (Mycobacterium leprae [3]): 0.042 ×10⁷ No_unit

Structure (SMILES): Nc1ccc(S(=O)(=O)c2ccc(N)cc2)cc1 [DAPSONE]
- Activity (Mycobacterium leprae [4]): 334 pg
- Survival (Plasmodium berghei): <1 weeks
- MIC [5]: 8.1 µg/mL (≈ 32.6 µM)
- MIC [6]: 3220 µg/mL (≈ 13000 µM)
- Survival (Mycobacterium leprae [7]): 2 weeks
- dose excreted at 720 h [8]: 57%
- Drug uptake [9]: 13.8 µg/mL
- Activity (Rattus norvegicus): 3.9 g/dL
- Time (Mycobacterium leprae [10]): >91 days
- inhibition at 2 µM (Mycobacterium leprae [11]): 92%
- inhibition at 20 µM (Mycobacterium leprae [12]): 91%
- Activity (Mycobacterium leprae [1]): 0.27 ×10⁵ No_unit
- Activity (Mycobacterium leprae [2]): 0.22 ×10⁵ No_unit
- Activity (Mycobacterium leprae [13]): 307 pg
- Activity (Mycobacterium leprae [14]): 0 pg
- Activity (Mycobacterium leprae [15]): 0.98 pmol
- Activity (Mycobacterium leprae [16]): 0.79 pmol
- Activity (Mycobacterium leprae [17]): 0 pmol
- Activity (Mycobacterium leprae [18]): 514 pg
- Activity (Mycobacterium leprae [19]): 396 pg
- Activity (Mycobacterium leprae [20]): 0 pg
- Activity (Mycobacterium leprae [21]): 1.37 pmol
- Activity (Mycobacterium leprae [22]): 0.92 pmol
- Activity (Mycobacterium leprae [23]): 0 pmol
- MIC (Mycobacterium leprae [24]): 15 µg/mL (≈ 60.4 µM)
- Activity (Mycobacterium leprae [25]): 0.025 ×10⁷ No_unit

Structure (SMILES): Clc1ccc(/N=N/c2ccc(NCCCN3CCCCC3)c3c2CCCC3)cc1
- MST [26]: 33 days
- MST [27]: 78 days
- MST [28]: 42 days
- MST [29]: 11 days

Structure (SMILES): c1ccc(/N=N/c2ccc(NCCCN3CCCCC3)c3c2CCCC3)cc1
- MST [30]: 13 days
- MST [31]: 50 days
- MST [32]: 37 days
